Here are results for 25 compounds from patent US9249102B2 (priority 2012, dated 2016).

Where two headings read alike, the source gives them in different places.

Test [1] has as its system microfilaria of Dirofilaria immitis. The experiment in a line: Method F: microfilaria of Dirofilaria immitis, survival at 24 hours.
In another test the test system is Haemonchus contortus. The experiment in a line: Method A: Haemonchus contortus L1 larvae, microtitre plate screen. As to conditions: 96 h, read-out: motility inhibition.
[2] abbreviates: survival of microfilaria at 24 hours.

The EC50 is the concentration giving half of the maximal effect. A high value points to lower potency in that assay. The term inhibition denotes how much of the control response was suppressed.

As for `N#Cc1ccc(N[C@H]2CC[C@H](OCC(=O)N3CCN(C(=O)C4Cc5cc(C(F)(F)F)ccc5O4)CC3)CC2)cc1C(F)(F)F` (some centres unmarked) [Compound 87, 2-[4-(4-cyano-3-trifluoromethyl-phenylamino)-cyclohexyloxy]-1-[4-(5-trifluoromethyl-2,3-dihydro-benzofuran-2-carbonyl)-piperazin-1-yl]-ethanone], the concentration for a half-maximal effect (EC50) in test [1] (setting [2]) was < 5 µg/mL. The inhibition at 5 µg/mL with Haemonchus contortus is ≥ 90%.
For `O=C(CO[C@H]1CC[C@H](Nc2ccc([N+](=O)[O-])c(C(F)(F)F)c2)CC1)N1CCN(c2ccc3ccccc3n2)CC1` [Compound 88, 2-((1R,4R)-4-(4-nitro-3-(trifluoromethyl)phenylamino)cyclohexyloxy)-1-(4-(quinolin-2-yl)piperazin-1-yl)ethanone], the EC50 in test [1] (setting [2]) was < 5 µg/mL. Also, in the test on Haemonchus contortus, the inhibition at 5 µg/mL is ≥ 90%.
With `CC(CN1CCN(c2ccc3cc(C(F)(F)F)ccc3n2)CC1)C(=O)N1CCC(Nc2ccc([N+](=O)[O-])c(C(F)(F)F)c2)CC1` (centres unmarked) [Compound 92, 2-methyl-1-(4-(4-nitro-3-(trifluoromethyl)phenylamino)piperidin-1-yl)-3-(4-(6-(trifluoromethyl)quinolin-2-yl)piperazin-1-yl)propan-1-one], in test [1] (setting [2]), the half-maximal effective concentration (EC50) was < 1 µg/mL. Moreover, the inhibition at 5 µg/mL in the test with Haemonchus contortus was ≥ 90%.
On the same counts, the results for `CC(CN1CCN(c2ccc3cc(Cl)ccc3n2)CC1)C(=O)N1CCC(Nc2ccc([N+](=O)[O-])c(C(F)(F)F)c2)CC1` (centres unmarked) [Compound 93, 3-[4-(6-chloroquinolin-2-yl)piperazin-1-yl]-2-methyl-1-(4-[[4-nitro-3-(trifluoromethyl)phenyl]amino]piperidin-1-yl)propan-1-one] are < 5 µg/mL and ≥ 90%.
As to `N#Cc1ccc(NC2CCN(C(=O)CCCN3CCN(c4ccc5cc(Cl)ccc5n4)CC3)CC2)cc1C(F)(F)F` [Compound 96, 4-[(1-[4-[4-(6-chloroquinolin-2-yl)piperazin-1-yl]butanoyl]piperidin-4-yl)amino]-2-(trifluoromethyl)benzonitrile], the EC50 in test [1] (setting [2]) is < 5 µg/mL. The inhibition at 5 µg/mL with Haemonchus contortus is ≥ 90%.
For `Cc1cc(N2CCN(C(=O)CO[C@H]3CC[C@H](Nc4ccc([N+](=O)[O-])c(C(F)(F)F)c4)CC3)CC2)nc2ccccc12` [Compound 98, 1-[4-(4-methylquinolin-2-yl)piperazin-1-yl]-2-[(4-[[4-nitro-3-(trifluoromethyl)phenyl]amino]cyclohexyl)oxy]ethan-1-one] the same measures were < 5 µg/mL and ≥ 90%.
Regarding `CC(CN1CCN(c2ccc3cc(F)ccc3n2)CC1)C(=O)N1CCC(Nc2ccc([N+](=O)[O-])c(C(F)(F)F)c2)CC1` (centres unmarked) [Compound 100, 3-[4-(6-fluoroquinolin-2-yl)piperazin-1-yl]-2-methyl-1-(4-[[4-nitro-3-(trifluoromethyl)phenyl]amino]piperidin-1-yl)propan-1-one], the EC50 in test [1] (setting [2]) is < 5 µg/mL. Further, in the test with Haemonchus contortus, the inhibition at 5 µg/mL was ≥ 90%.
With `N#Cc1ccc(NC2CCN(C(=O)CCCN3CCN(c4ccc5cc(F)ccc5n4)CC3)CC2)cc1C(F)(F)F` [Compound 103, 4-[(1-[4-[4-(6-fluoroquinolin-2-yl)piperazin-1-yl]butanoyl]piperidin-4-yl)amino]-2-(trifluoromethyl)benzonitrile], in test [1] (setting [2]), the EC50 was < 5 µg/mL. Besides, in the test with Haemonchus contortus, the inhibition at 5 µg/mL was ≥ 90%.
On the same counts, the results for `O=C(CO[C@H]1CC[C@H](Nc2ccc([N+](=O)[O-])c(C(F)(F)F)c2)CC1)N1CCN(Cc2cc3cc(F)ccc3o2)CC1` [Compound 179, 1-[4-[(5-fluoro-1-benzofuran-2-yl)methyl]piperazin-1-yl]-2-[(4-[[4-nitro-3-(trifluoromethyl)phenyl]amino]cyclohexyl)oxy]ethan-1-one] are < 1 µg/mL and ≥ 90%.
For `O=C(CO[C@H]1CC[C@H](Nc2ccc([N+](=O)[O-])c(C(F)(F)F)c2)CC1)N1CCN(C(=O)c2cc3cc(Cl)ccc3o2)CC1` [Compound 181, 1-[4-[(5-chloro-1-benzofuran-2-yl)carbonyl]piperazin-1-yl]-2-[(4-[[4-nitro-3-(trifluoromethyl)phenyl]amino]cyclohexyl)oxy]ethan-1-one] the same measures were < 1 µg/mL and ≥ 90%.
For `O=C(CO[C@H]1CC[C@H](Nc2ccc([N+](=O)[O-])c(C(F)(F)F)c2)CC1)N1CCN(C(=O)c2cc3cc(F)ccc3o2)CC1` [Compound 182, 1-[4-[(5-fluoro-1-benzofuran-2-yl)carbonyl]piperazin-1-yl]-2-[(4-[[4-nitro-3-(trifluoromethyl)phenyl]amino]cyclohexyl)oxy]ethan-1-one], the concentration giving a half-maximal response (EC50) in test [1] (setting [2]) is < 5 µg/mL. Also, in the test with Haemonchus contortus, the inhibition at 5 µg/mL is ≥ 90%.
On the same counts, the results for `O=C(COc1ccc(Nc2ccc([N+](=O)[O-])c(C(F)(F)F)c2)cc1)N1CCN(Cc2cc3cc(Cl)ccc3o2)CC1` [Compound 184, 1-[4-[(5-chloro-1-benzofuran-2-yl)methyl]piperazin-1-yl]-2-(4-[[4-nitro-3-(trifluoromethyl)phenyl]amino]phenoxy)ethan-1-one] are < 1 µg/mL and ≥ 90%.
For `O=C(COc1ccc(Nc2ccc([N+](=O)[O-])c(C(F)(F)F)c2)cc1)N1CCN(CC2Cc3cc(F)ccc3O2)CC1` (centres unmarked) [Compound 185, 1-[4-[(5-fluoro-2,3-dihydro-1-benzofuran-2-yl)methyl]piperazin-1-yl]-2-(4-[[4-nitro-3-(trifluoromethyl)phenyl]amino]phenoxy)ethan-1-one] the same measures were < 0.1 µg/mL and ≥ 90%.
Regarding `O=C(COc1ccc(Nc2ccc([N+](=O)[O-])c(C(F)(F)F)c2)cc1)N1CCN(Cc2cc3cc(F)ccc3o2)CC1` [Compound 186], the EC50 in test [1] (setting [2]) was < 1 µg/mL. Besides, in the test on Haemonchus contortus, the inhibition at 5 µg/mL was ≥ 90%.
For `O=C(COc1ccc(Nc2ccc([N+](=O)[O-])c(C(F)(F)F)c2)cc1)N1CCN(Cc2cc3cc(C(F)(F)F)ccc3o2)CC1` [Compound 188, 2-(4-[[4-nitro-3-(trifluoromethyl)phenyl]amino]phenoxy)-1-(4-[[5-(trifluoromethyl)-1-benzofuran-2-yl]methyl]piperazin-1-yl)ethan-1-one], the EC50 in test [1] (setting [2]) is < 5 µg/mL. Moreover, the inhibition at 5 µg/mL in the test with Haemonchus contortus was ≥ 90%.
Turning to `O=C(COc1ccc(Nc2ccc([N+](=O)[O-])c(C(F)(F)F)c2)cc1)N1CCN(C(=O)c2cc3cc(Cl)ccc3o2)CC1` [Compound 189, 1-[4-[(5-chloro-1-benzofuran-2-yl)carbonyl]piperazin-1-yl]-2-(4-[[4-nitro-3-(trifluoromethyl)phenyl]amino]phenoxy)ethan-1-one], the EC50 in test [1] (setting [2]) is < 5 µg/mL. For the same compound, the inhibition at 5 µg/mL in the test with Haemonchus contortus was ≥ 90%.
For `O=C(CO[C@H]1CC[C@H](Nc2ccc([N+](=O)[O-])c(C(F)(F)F)c2)CC1)N1CCc2cc(C(F)(F)F)ccc2C1` [Compound 194, 2-[(4-[[4-nitro-3-(trifluoromethyl)phenyl]amino]cyclohexyl)oxy]-1-[6-(trifluoromethyl)-1,2,3,4-tetrahydroisoquinolin-2-yl]ethan-1-one] the same measures were < 1 µg/mL and ≥ 90%.
With `O=C(NCCO[C@H]1CC[C@H](Nc2ccc([N+](=O)[O-])c(C(F)(F)F)c2)CC1)C(=O)NCC1Cc2ccccc2O1` (some centres unmarked) [Compound 216], in test [1] (setting [2]), the EC50 was < 1 µg/mL. Moreover, in the test with Haemonchus contortus, the inhibition at 5 µg/mL is ≥ 90%.
For `O=C(NCCO[C@H]1CC[C@H](Nc2ccc([N+](=O)[O-])c(C(F)(F)F)c2)CC1)C(=O)NCC1Cc2cc(F)ccc2O1` (some centres unmarked) [Compound 217], the EC50 in test [1] is < 1 µg/mL. Besides, in the test with Haemonchus contortus, the inhibition at 5 µg/mL was ≥ 90%.
Consider `O=C(NCCO[C@H]1CC[C@H](Nc2ccc([N+](=O)[O-])c(C(F)(F)F)c2)CC1)C(=O)NCC1Cc2cc(Cl)ccc2O1` (some centres unmarked) [Compound 218, N^1-[(5-chloro-2,3-dihydro-1-benzofuran-2-yl)methyl]-N^2-[2-[(4-[[4-nitro-3-(trifluoromethyl)phenyl]amino]cyclohexyl)oxy]ethyl]ethanediamide], for which the EC50 in test [1] (setting [2]) is < 1 µg/mL. The inhibition at 5 µg/mL in the test on Haemonchus contortus is ≥ 90%.
On the same counts, the results for `O=C(NCCO[C@H]1CC[C@H](Nc2ccc([N+](=O)[O-])c(C(F)(F)F)c2)CC1)C(=O)NCC1Cc2cc(C(F)(F)F)ccc2O1` (some centres unmarked) [Compound 219, N^1-[2-[(4-[[4-nitro-3-(trifluoromethyl)phenyl]amino]cyclohexyl)oxy]ethyl]-N^2-[[5-(trifluoromethyl)-2,3-dihydro-1-benzofuran-2-yl]methyl]ethanediamide] are < 1 µg/mL and ≥ 90%.
On the same counts, the results for `O=C(NCCO[C@H]1CC[C@H](Nc2ccc([N+](=O)[O-])c(C(F)(F)F)c2)CC1)C(=O)NCc1cc2ccccc2o1` [Compound 220, N^1-(benzofuran-2-ylmethyl)-N^2-(2-(4-(4-nitro-3-(trifluoromethyl)phenylamino)cyclohexyloxy)ethyl)oxalamide] are < 1 µg/mL and ≥ 90%.
Regarding `O=C(NCCO[C@H]1CC[C@H](Nc2ccc([N+](=O)[O-])c(C(F)(F)F)c2)CC1)C(=O)NCc1cc2cc(C(F)(F)F)ccc2o1` [Compound 223, N^1-(2-(4-(4-nitro-3-(trifluoromethyl)phenylamino)cyclohexyloxy)ethyl)-N^2-((5-(trifluoromethyl)benzofuran-2-yl)methyl)oxalamide], the EC50 in test [1] is < 0.1 µg/mL. In addition, the inhibition at 5 µg/mL with Haemonchus contortus is ≥ 90%.
Take `O=C(NCCOc1ccc(Nc2ccc([N+](=O)[O-])c(C(F)(F)F)c2)cc1)C(=O)NCC1Cc2cc(F)ccc2O1` (centres unmarked) [Compound 225, N^1-((5-fluoro-2,3-dihydrobenzofuran-2-yl)methyl)-N^2-(2-(4-(4-nitro-3-(trifluoromethyl)phenylamino)phenoxy)ethyl)oxalamide]: the EC50 in test [1] (setting [2]) is < 1 µg/mL. In the test on Haemonchus contortus, the inhibition at 5 µg/mL is ≥ 90%.
For `O=C(NCCOc1ccc(Nc2ccc([N+](=O)[O-])c(C(F)(F)F)c2)cc1)C(=O)NCC1Cc2cc(Cl)ccc2O1` (centres unmarked) [Compound 226, N^1-((5-chloro-2,3-dihydrobenzofuran-2-yl)methyl)-N^2-(2-(4-(4-nitro-3-(trifluoromethyl)phenylamino)phenoxy)ethyl)oxalamide] the same measures were < 1 µg/mL and ≥ 90%.
